Source: US20250353845A1, “THYROID HORMONE BETA RECEPTOR AGONIST, CRYSTAL FORM, PREPARATION METHOD AND USE” (KPC PHARMACEUTICALS, INC, priority 2022, published 2025)
Like-named read-outs stand apart in the source and are kept apart here. Values belong to the compound of their own block, whether it stands above or below them.

Assays:
[1] = target: T1, thyroid receptor β (THRβ) (Homo sapiens, UniProt P10828); experiment: Cytological activity test of thyroid receptor β (luciferase reporter gene in HEK293T cells); format: cell-based; details: read-out: EC50 of THR β in vitro cell activity
T1 construct: expressed in transfected cells; host or cells: HEK293T
T1 sequence (P10828 217-461 limits assumed): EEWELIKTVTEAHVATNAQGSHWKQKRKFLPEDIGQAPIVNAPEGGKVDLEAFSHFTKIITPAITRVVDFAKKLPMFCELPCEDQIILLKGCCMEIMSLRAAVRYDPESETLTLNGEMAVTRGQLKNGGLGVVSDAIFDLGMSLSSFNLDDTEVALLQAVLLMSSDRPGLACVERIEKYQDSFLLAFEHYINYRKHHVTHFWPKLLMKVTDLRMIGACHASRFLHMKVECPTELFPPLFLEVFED
Source text: In this study, the fluorescence reporter gene experiment method was used to evaluate the excitatory effects of the two compounds to be tested on THR β target.
PGL4.35 [luc2P/9XGAL4UAS/Hygro] contains nine GALA-UAS repeat sequences (upstream activation sequences). This sequence drives the transcription of luciferase reporter gene luc2P, in response to the binding of the fusion protein containing Gal4 DNA binding domain with the ligand binding domain of thyroid receptor β (THR β) in pBIND THRβ vector. Stimulation on THRβ by the test sample will lead to the increase of luminescence signal.
The positive compound was dissolved in DMSO to prepare a 5 mM stock solution, and then diluted to a 0.5 mM stock solution. All compounds were dissolved in DMSO and stored in a refrigerator at −20° C. […]
2) HEK293T cells were cultured according to ATCC standard, and the cells were tested in exponential growth period. […] The cells were collected and counted. […]
5) The Britelite plus detection reagent was placed at room temperature. […] Envision was used to detect the luminescence value.
6) Agonism percentage is calculated as follows:
[formula] • RLU: Resulting Luminescence • RLUpositive control: average value of luminescence of all positive control holes in the whole plate. • RLUnegative control: average value of luminescence of all negative control holes in the whole plate. […]

[2] = Pharmacokinetic evaluation in rats (liver-blood ratio); format: in vivo, CD rats
Description: To determine the pharmacokinetic parameters of the compound represented by formula (I) in rats.
The animals were given the compound at a dose of 5 mg/kg at a concentration of 0.5 mg/mL. Animals were cross-collected for plasma samples at 2, 6 and 10 h after administration. The drug concentration in the plasma samples was determined by LC-MS/MS method, and the kinetic parameters of the test drugs obtained were found in Table 25: […]

[3] = target: thyroid hormone receptor β (THR β) (Homo sapiens, UniProt P10828); experiment: In vitro enzyme activity test of thyroid receptor β (TR-FRET, binding of THRβ LBD with co-activating peptide SRC2-2); format: biochemical
Description: Time-resolved fluorescence resonance energy transfer (TR-FRET) experimental method was used to evaluate the agonist activity in vitro of the compounds to be tested through the binding of thyroid hormone receptor β (THR β) with its co-activating peptide SRC2-2.
GST tag was fused to THR β ligand binding domain (THR β LBD), and its co-activating peptide SRC2-2 was biotinylated. The binding capacity of THR β LBD to SRC2-2 was determined by detecting the tightly bound Europium-labeled anti-GST antibody and Streptavidin labeled with D2 with TR-FRET.
1) the compounds to be tested were dissolved in DMSO to prepare a 30 mM stock solution that could be stored in a dryer at room temperature for three months. If it is stored for a long time, it will be placed in a refrigerator at −20° C.
The activity rate is calculated as follows: […]
Ratio valuepositive control: average value of the ratios of all positive control holes in the whole plate.
Ratio valuenegative control: average value of the ratios of all negative control holes in the whole plate.
The EC50 (half excited concentration) of the compound was obtained by using the following nonlinear fitting formula.
X: log value of compound concentration; Y: activity rate of compound.

[4] = Solid stability test of crystalline form A; format: physicochemical; details: open, 10 days
Source text: […] Samples in duplicate were placed under each condition, and the samples for XRPD detection and melting points were placed separately. Samples placed under different conditions were sampled for XRPD detection at the planned test end point, and the test results were compared with the initial test results at Day 0.

[5] = Hygroscopicity of crystalline form A by dynamic vapor sorption (DVS); format: physicochemical; details: 25° C. and 80% RH
Description: Instrument model: TA Instruments Q5000 SA dynamic moisture adsorption instrument.
Test conditions: 1 mg to 10 mg sample was weighed and placed in a DVS sample tray for testing.
The detailed DVS parameters were as follows: temperature: 25° C., balance: dm/dt=0.01%/min for 15.00 min, drying: 90 min at 0% RH, RH (%) test gradient: 10% RH (%), test gradient range: 0%-80%-0%.
The hygroscopicity evaluation is classified as follows:
Experimental material: TA Instruments Q5000 SA dynamic moisture adsorption instrument
Experimental method: 1 mg to 10 mg of sample was weighted and placed in a DVS sample tray for testing.

Sequence of thyroid hormone receptor β (THR β) (P19793 whole entry partner, other chains not shown, the tested form may be a part): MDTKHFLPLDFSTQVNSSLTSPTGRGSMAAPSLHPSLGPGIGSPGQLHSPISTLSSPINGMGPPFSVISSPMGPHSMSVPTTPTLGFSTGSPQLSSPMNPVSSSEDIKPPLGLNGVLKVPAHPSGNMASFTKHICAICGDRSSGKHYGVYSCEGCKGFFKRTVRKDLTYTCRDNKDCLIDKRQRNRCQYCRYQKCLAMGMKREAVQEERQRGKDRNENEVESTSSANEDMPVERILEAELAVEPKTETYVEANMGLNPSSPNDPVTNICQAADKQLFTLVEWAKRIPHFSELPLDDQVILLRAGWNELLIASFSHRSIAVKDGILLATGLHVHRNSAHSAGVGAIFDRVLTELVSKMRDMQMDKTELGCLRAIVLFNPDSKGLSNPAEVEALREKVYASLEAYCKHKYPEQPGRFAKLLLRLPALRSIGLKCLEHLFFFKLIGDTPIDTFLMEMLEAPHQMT

EC50 [1]: 0.214 µM
Kp at 2 h ([2]; male, CD, liver/plasma, rat, PO, 5.0 mg/kg, 2 h, read-out: L/P concentration ratio): 7.7
Kp at 6 h ([2]; male, CD, liver/plasma, rat, PO, 5.0 mg/kg, 6 h, read-out: L/P concentration ratio): 22.1
Kp at 10 h ([2]; male, CD, liver/plasma, rat, PO, 5.0 mg/kg, 10 h, read-out: L/P concentration ratio): 23.6
concentration at 2 h ([2]; male, CD, liver, rat, PO, 5.0 mg/kg, 2 h, read-out: Liver drug concentration L): 1180 ng/g
concentration at 6 h ([2]; male, CD, liver, rat, PO, 5.0 mg/kg, 6 h, read-out: Liver drug concentration L): 746 ng/g
concentration at 10 h ([2]; male, CD, liver, rat, PO, 5.0 mg/kg, 10 h, read-out: Liver drug concentration L): 238 ng/g
concentration at 2 h ([2]; male, CD, plasma, rat, PO, 5.0 mg/kg, 2 h, read-out: Blood drug concentration P): 153 ng/mL
concentration at 6 h ([2]; male, CD, plasma, rat, PO, 5.0 mg/kg, 6 h, read-out: Blood drug concentration P): 33.8 ng/mL
concentration at 10 h ([2]; male, CD, plasma, rat, PO, 5.0 mg/kg, 10 h, read-out: Blood drug concentration P): 10.1 ng/mL
half-life ([2]; male, CD, plasma, rat, PO, 5.0 mg/kg, read-out: T½ (converted)): 3.7 h
blood drug concentration ([2]; rats): low
liver drug concentration ([2]; rats): relatively high
liver targeting ([2]; rats): good liver targeting properties
EC50 [3]: 0.046 µM
SMILES: C[C@@H]1CCc2c(Oc3c(Cl)cc(-n4nc(C#N)c(=O)[nH]c4=O)cc3Cl)ccc(=O)n21 [Compound represented by formula (I)]
liver targeting (conclusion) ([2]; rat, PO, 5.0 mg/kg): Conclusion: The blood drug concentration of the compound represented by formula (I) in rats was relatively low, and the liver drug concentration was relatively high, so the compound represented by formula (I) has good liver targeting.

Crystalline form (XRPD) after storage ([4]; 25° C./65% RH): Crystalline form A
Crystalline form (XRPD) after storage ([4]; 25° C./85% RH): Crystalline form A
Crystalline form (XRPD) after storage ([4]; 40° C./75% RH): Crystalline form A
Crystalline form (XRPD) after storage ([4]; 50° C.): Crystalline form A
hygroscopicity classification [5]: slight hygroscopicity
hygroscopic weight gain ΔW ([5]; DVS): 0.6%
SMILES: C[C@@H]1CCc2c(Oc3c(Cl)cc(-n4nc(C#N)c(=O)[nH]c4=O)cc3Cl)ccc(=O)n21 [crystalline form A]
